A short description of data set [1]: In vitro dissolution test (microcentrifuge, PBS pH 6.5). In kind it is physicochemical. Conditions: PBS pH 6.5, 290 mOsm/kg, 37° C., 3000 μg/mL Drug 3 if all dissolved; Dispersion 4 before secondary drying; crystalline drug alone. How it is done: A sample of Dispersion 4 was evaluated before and after secondary drying in an in vitro dissolution test to determine the effect of drying on concentration enhancement. For this test, a sufficient amount of Dispersion 4 was added to microcentrifuge test tubes so that the concentration of Drug 3 would have been 3000 μg/mL had all of the drug had dissolved. The test was performed in duplicate. The tubes were placed in a 37° C. temperature-controlled chamber, and 1.8 mL PBS at pH 6.5 and 290 mOsm/kg was added to each tube. The samples were mixed using a vortex mixer for about 60 seconds. The samples were centrifuged at 13,000 G at 37° C. for 1 minute. The resulting supernatant solution was then sampled and diluted 1:6 (by volume) with methanol and then analyzed by high performance liquid chromatography (HPLC). The contents of each tube were mixed on the vortex mixer and allowed to stand undisturbed at 37° C. until the next sample was taken. Samples were collected at 4, 10, 20, 40, 90, and 1200 minutes. For comparison, crystalline Drug 3 alone was tested using the same procedures.
The concentrations of drug obtained in these samples were used to determine the maximum concentration of drug (MDC90) and the area under the concentration-versus-time curve (AUC90) during the initial 90 minutes.

The nature of data set [2]: Aqueous solubility of the drug. In kind it is physicochemical.

Converted amounts (≈) assume the structure as drawn. Bounds are passed on as bounds.

One may read the solubility as the concentration that dissolves in the medium under given conditions. On to `C=CCNC(=O)[C@H]1N(C(=O)[C@@H](O)[C@H](Cc2ccccc2)NC(=O)c2cccc(O)c2C)CSC1(C)C` [Drug 3, (4R)—N-allyl-3-{(2S,3S)-2-hydroxy-3-[(3-hydroxy-2-methylbenzoyl)amino]-4-phenylbutanoyl}-5,5-dimethyl-1,3-thiazolidine-4-carboxamide], for which, in data set [1], the “AUC90 (area under the concentration-versus-time curve during the initial 90 minutes)” value came out at 9200 µg·min/mL and the “MDC90 (maximum concentration of drug during the initial 90 minutes)” value worked out at 112 µg/mL. Further, the solubility in data set [2] was around 1600 µg/mL (≈ 3130 µM). Compound `CCOC(=O)N1c2ccc(C(F)(F)F)cc2[C@@H](N(Cc2cc(C(F)(F)F)cc(C(F)(F)F)c2)C(=O)OC)C[C@H]1CC` [Drug 2, torcetrapib, reference compound] had a solubility in data set [2] below 0.1 µg/mL. Same read-out and setting: the same measure for `O=C(N[C@@H](Cc1ccccc1)[C@H](O)C(=O)N1C[C@@H](O)[C@@H](O)C1)c1cc2cc(Cl)ccc2[nH]1` [Drug 1, 5-chloro-1H-indole-2-carboxylic acid [(1S)-benzyl-(2R)-hydroxy-3-((3R,4S)-dihydroxy-pyrrolidin-1-yl-)-3-oxypropyl]amide]: around 80 µg/mL (≈ 175 µM).

These data come from US8834929B2, “Drying of drug-containing particles” (Bend Research, Inc., priority 2006, dated 2014).
